Data on one compound can be found in patent US10154992B2, “Compounds and methods for treating HIV infection” (THE REGENTS OF THE UNIVERSITY OF CALIFORNIA, priority 2016, dated 2018).

pIC50: −log10 of the molar value. Converted amounts (≈) assume the structure as drawn. Where two headings read alike, the source gives them in different places.

For one data set, the target named is T1, Rev-RRE IIB interaction (Human immunodeficiency virus type 1 group M subtype B, UniProt P04608+P04618).
T1 construct: with a fusion to HIV Rev (residues 3-70) was generated; expressed in transfected cells
The class given is cell-based, HIV. Here is the method: A library of approximately 4500 carboxamide-containing compounds was assembled and tested in the reporter cell line at 30 μM. Reporter cells were plated in a white 96-well plate and compounds were added to the cells using a Biomek FX robotic liquid handler (Beckman Coulter). The cells were incubated with the compound for 48 hours then assayed for luciferase activity (Promega Bright Glo). The cytotoxicity of each compound was determined in parallel via MTT-based cell viability assays.
Cells were counted and plated into white 384-well or 96-well cell-culture treated assay plates and compounds were added. After 48 hours, the cells were prepared for luminescence assays that were performed on a plate reader (Tecan Evolution or MD Analyst). The cytotoxicity of each compound was determined in parallel via MTT-based cell viability assays.
Tat hybrid reporter assay. […] Previously characterized thienopyridines and diaminoacridine were used as controls. Cells were counted and plated into white 384-well cell-culture treated assay plates and compounds were added. After 48 hours, the cells were prepared for lumincescence assays that were performed on a plate reader (Tecan Evolution or MD Analyst). The cytotoxicity of each compound was determined in parallel via MTT-based cell viability assays.
The RRE IIB-Rev screening cell line was plated in 384-well assay plates and compounds were added to the cells to a final concentration of 30 μM. Cells were prepared and assayed for luciferase activity. […] In parallel, MTT cell viability assays were performed to assess the toxicity of compounds and minimize the level of false positives.

Data set [1] concerns HIV-1 provirus in U1 cells. The experiment in a line: U1 activation (latency) assay, p24 ELISA. The class given is cell-based. Conditions: for pIC50: Human immunodeficiency virus 1. In short, it runs like this:
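PHA-activated U1 cells (latent integrated HIV-1 provirus, 250,000/well) treated with compound at final 1 to 10,000 nM for 3 days; virus production measured by p24 ELISA of cell-free supernatant. Cell viability assessed by MTT in parallel cultures.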

The subject of a further data set is HIV-1 isolate NL4-3. The experiment in a line: Virus spreading / replication assay in Jurkat cells, p24 ELISA. Type of data set: cell-based. Here is the method: (§1) Virus spreading assay. Jurkat (E6-1) cells (NIH AIDS Reagent Program) were cultured in RPMI media supplemented with 25 mM HEPES pH 7.4, 10% heat-inactivated fetal calf serum (Hyclone, Waltham Mass.), and 1% penicillin/streptomycin. 2.5×10^5 Jurkat cells were inoculated with 250 pg p24 in 250 μl media in a 96-well flat bottom polystyrene cell culture microplate. Input virus was removed after 18 hours via washing cells phosphate-buffered saline (PBS). Cells were resuspended in 250 μl of media containing compounds at the described concentrations. Cells were incubated at 37° C., 5% CO2 and supernatant samples were removed every 48 hours and replaced with fresh media containing the compounds. Viral replication was quantified using ELISA to quantify p24 viral capsid protein in the culture supernatant. Mouse monoclonal and rabbit polyclonal α-p24 antibodies used in the ELISA were obtained from the NIH AIDS Reagent Program. Toxicity was monitored using the MTT cell viability assay (Mosmann, T. (1983). J Immunol Methods 65, 55-63).
For orientation: An ELISA detects its analyte on a solid surface through an enzyme-linked reagent.

Data set [2] is described as follows: MTT cell viability in Jurkat replication assay. Type of data set: cell-based. As to conditions: human, Jurkat (E6-1) cells, pH 7.4; Jurkat infectivity assay; read-out: TC50 (MTT cell viability). As for the experimental part:
as §1

Data set [3] concerns clinical isolates of HIV-1. The experiment in a line: HIV-1 replication assay in PBMCs, p24 ELISA. Type of data set: cell-based. As for the experimental part:
HIV-1 replication assay in PBMCs. Virus isolates were obtained from the NIH AIDS Reagent Program. Human PBMCs, seronegative for HIV and hepatitis B virus (Astarte Biologics, LLC) were stimulated in R-3 medium (RPMI 1640 medium with 25 mM HEPES and L-glutamine, 20% heat-inactivated fetal bovine serum, 1% penicillin/streptomycin, 201U/mL IL-2) with 5 µg/mL phytohemagglutinin (PHA-P) for 48 to 72 h. Stimulated PBMCs were resuspended and diluted in fresh R-3 medium and added to 96-well plates at 5×10^4 cells/well. The 50% tissue culture infective dose (TCID50) of each virus stock was measured by end-point dilution assay described by Reed and Muench (Reed, L. J., and Muench, H. (1938) American Journal of Hygiene 27, 493-497). Spinoculation (1,200×g, 2 hrs) was applied to improve the efficiency of infection.
Cells were infected with 40 TCID50s of virus stock under spinoculation in the presence of different concentrations of test compounds (biological quintuplicate wells/concentration) and incubated at 37° C., 5% CO2 for 7 days. On day 4, half of the supernatant was removed and replaced with fresh R-3 medium containing the appropriate concentration of test compounds. On day 7, cell-free supernantant samples were collected for analysis of p24 antigen expression measured by ELISA described above. Antiviral activity was assessed by the inhibition of p24 expression (Reed, L. J., and Muench, H. (1938) American Journal of Hygiene 27, 493-497.

Data set [4] is described as follows: Aqueous solubility pH 7.4. Type of data set: physicochemical. Conditions: aqueous solution, pH 7.4, pH 7.4, aqueous buffer. The text has this:
We next evaluated analogs 2b, 2f, 4a, and 4e in a panel of standard in vitro ADME assays to assess drug-like properties and the potential for efficacy in animals.

The nature of data set [5]: Human liver microsome stability. The class given is in vitro ADME. Conditions: human liver microsomes; read-out: HLM T1/2. From the text: The more lipophilic analogs 4a and 4e also appear more prone to oxidative metabolism in the presence of human liver microsomes. This is perhaps unsurprising given the presence of methoxyphenyl (4a) and benzylic methylene (4e) functions, both potential sites of oxidative metabolism.
A general note: Liver microsomes are vesicles of endoplasmic reticulum, rich in cytochrome P450 enzymes.

Data set [6] deals with A7854G mutant (RRE) virus. Briefly: Replication of RRE A7854G resistant virus. The class given is cell-based, HIV.

T1 sequence (P04608 whole entry, looked up, the tested form may be a part): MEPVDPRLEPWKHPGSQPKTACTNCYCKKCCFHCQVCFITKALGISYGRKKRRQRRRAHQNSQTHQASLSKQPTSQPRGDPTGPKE
T1 sequence (P04618 whole entry, looked up, the tested form may be a part): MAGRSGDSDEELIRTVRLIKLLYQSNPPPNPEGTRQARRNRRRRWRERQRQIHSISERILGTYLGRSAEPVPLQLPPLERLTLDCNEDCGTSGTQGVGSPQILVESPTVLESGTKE

As to `NC(=O)c1cc2c(-c3ccc4c(c3)CCO4)cncc2s1` [Compound 4e, 4-(2,3-dihydro-1-benzofuran-5-yl)thieno[2,3-c]pyridine-2-carboxamide], the “activity in the Tat-hybrid reporter assay” value at Rev-RRE IIB interaction was “low-nM potency”. The “potency in the U1 assay” value in data set [1] was “low-nM potency”. Also, the pIC50 in data set [1] (Table 2, read-out: U1 cell IC50) was greater than 7.00; in data set [1] (read-out: IC50 in the U1 assay) it was 8.05; in the data set with HIV-1 isolate NL4-3 (Human immunodeficiency virus 1, NL43, Jurkat, FIG. 17, first pair of values, read-out: IC50 NL4-3 control), 8.21; in the data set on HIV-1 isolate NL4-3 (Human immunodeficiency virus 1, NL43, Jurkat, FIG. 17, second pair of values ('Notably'), read-out: IC50 control), 7.59; in the data set with HIV-1 isolate NL4-3 (Human immunodeficiency virus 1, NL43, Jurkat, Table 2, NL4-3, read-out: Jurkat HIV-1 replication assay), greater than 7.00; in the data set on HIV-1 isolate NL4-3 (Human immunodeficiency virus 1, NL43, Jurkat, read-out: IC50 in the HIV replication assay), 8.40. Also, the pIC50 in the data set on HIV-1 isolate NL4-3 (Human immunodeficiency virus 1, NL43, Jurkat cells, wild type virus, Vpu experiment (FIG. 10), read-out: IC50 value for isolate NL4-3) is 8.30; in data set [3] (Human immunodeficiency virus 1, BAL, CCR5, PBMC, viral isolate Ba-L, coreceptor CCR5) it was greater than 7.00; in data set [3] (Human immunodeficiency virus 1, CCR5, PBMC, viral isolate 92HT593, coreceptor CXCR4, CCR5) it was greater than 7.00; in data set [3] (Human immunodeficiency virus 1, CCR5, PBMC, viral isolate 92TH014, coreceptor CCR5), greater than 7.00; in data set [3] (Human immunodeficiency virus 1, CCR5, PBMC, viral isolate 93BR021, coreceptor CCR5), greater than 7.00; in data set [3] (Human immunodeficiency virus 1, CCR5, PBMC, viral isolate 93BR028, coreceptor CCR5), greater than 7.00. For the same compound, the pIC50 was greater than 7.00 in data set [3] (Human immunodeficiency virus 1, PBMC, PBMC, viral isolate 92HT599, coreceptor CXCR4); greater than 7.00 in data set [3] (Human immunodeficiency virus 1, PBMC, PBMC, viral isolate 92UG005, coreceptor CXCR4); 6.30 to 7.00 in data set [3] (Human immunodeficiency virus 1, PBMC, PBMC, viral isolate LAI, coreceptor CXCR4); 6.66 in data set [6] (Human immunodeficiency virus 1, read-out: IC50 A7854G mutant); 8.29 in data set [6] (Human immunodeficiency virus 1, read-out: IC50 resistant-virus). In addition, the CC50 in data set [2] was less than 40000 nM. Also, the solubility in data set [4] was 0.28 µM (≈ 0.083 µg/mL). Moreover, the half-life in data set [5] is 18 min.

Broadly, the solubility is the concentration that dissolves in the medium under given conditions.
